As usually defined, the Tmax is the time from dosing to the highest level. The half-life is the time needed for the level to fall by half in the phase considered.

Assay type in all cases: in vivo
Data set [1] has as its system rat. The data set is described as follows: Repeated dose (28 day) toxicity study in rat. Particulars: 28 day repeated dose. The method, then: (§1) Repeated dose (28 day) toxicity studies were conducted using ANEB-001 in two species, rat and primate, selected on the basis of acceptable bioavailability and comparison of metabolite profiles with those in human liver microsomes.

Data set [2] can be described thus: Single ascending oral dose pharmacokinetics in humans. Particulars: human plasma, single oral dose 1-200 mg. The method, then: Human subjects were assigned to six different dosage groups of ANEB-001. Groups assigned to receive dosages of 1 mg, 5 mg, 25 mg, 100 mg, or 200 mg had six subjects each, and the 150 mg dosage group had four subjects. ANEB-001 was administered orally to subjects in each group, and the plasma concentration of ANEB-001 in each subject was measured as a function of time after dosing (FIG. 2).

Data set [3] relates to cynomolgus monkey. The data set is described as follows: Repeat dose (28 day) toxicity study in cynomolgus monkey. Particulars: 28 day repeat dose, 160 mg/kg/day. Here is the method: as §1
Data set [4] has as its system C57 mice. Description: Reversal of THC-induced hypolocomotion in mice. Particulars: 30 min pre-test, THC 3 mg/kg ip 10 min pre-test. The method, then: Reversal of THC-induced hypolocomotion in mice: Six C57 mice (Charles River, Wilmington, Mass.) were administered Δ9-tetrahydrocannabinol (THC) 3 mg/kg ip, 10 min pre-test. […] In this apparatus, four qualitatively different measures of locomotor activity are automatically scored. […] The magnitude of the effect is similar to that elicited by rimonabant given at 3 mg/kg po, and given 30 min pre-test.

With `CC(C)(C)NC(=O)N1CC(O[C@H](c2ccc(Cl)cc2)c2ccccc2C(F)(F)F)C1` [ANEB-001, 3-[(R)-2-(trifluoromethyl)-4′-chlorobenzhydryloxy]-N-(tert-butyl)azetidine-1-carboxamide], the “no observed adverse effect level” value in data set [1] worked out at 75 mg/kg/day. Moreover, the hepatic findings result in data set [1] (75 mg/kg/day) is “hepatic changes consistent with an adaptive response”. Besides, in data set [1] (highest dose 75 mg/kg/day), the “adverse effects at the highest dose tested” value is “No adverse effects were observed”. Also, the time of peak concentration (Tmax) in data set [2] lay in the range of 1 to 1.6 h. Besides, the half-life in data set [2] (read-out: terminal elimination half-life) was no more than 456 h. The “adverse effects at the highest dose level studied” value in data set [3] is “no adverse effects were observed”. In data set [4] (30 mg/kg orally, 15 min in locomotor activity cages, FIG. 1), the “action of THC on the total active time parameter of locomotor measures” value is recorded as “significantly reversed”.
`Cc1c(C(=O)NN2CCCCC2)nn(-c2ccc(Cl)cc2Cl)c1-c1ccc(Cl)cc1` [rimonabant, reference compound]: the “magnitude of the effect on THC-induced hypolocomotion (total active time), compared with ANEB-001” value in data set [4] (3 mg/kg po) is “similar”.

The values above are taken from US11141404B1, “Formulations and methods for treating acute cannabinoid overdose” (Anebulo Pharmaceuticals, Inc., priority 2020, dated 2021).
